Target: HIF PHD2 (Homo sapiens, UniProt Q9GZT9)
Assay: PHD2 inhibition assay (TR-FRET, VCB-Eu detection of hydroxylated P564-HIF1α peptide)
Type: biochemical
Settings: 2 nM PHD2, 100 nM P564-HIF1α peptide, 0.25 μM 2-oxoglutarate, 100 μM FeCl2, 2 mM ascorbic acid
Experimental: Inhibition of HIF PHD2 activity was quantified utilizing the TR-FRET technology. HIF PHD2 catalyzes a hydroxyl modification on the proline residue of the P564-HIF1α peptide substrate (Biotin-DLEMLAPYIPMDDDFQL (SEQ ID NO: 7)) resulting in recognition and binding of the europylated Von Hippel-Lindau protein (pVHL), elongin B and elongin C heterotrimeric (VCB-Eu) complex.
The PHD2 inhibition assay was executed by addition of freshly dissolved FeCl2 to 178.57 μM (100 μM final concentration) in PHD2 Reaction Buffer containing 30 mM MES, pH 6, 10 mM NaCl, 0.25% Brij-35, 0.01% BSA, and 1% DMSO. 28 μL of the iron solution and 2 μL of inhibitor compounds serially diluted in 100% DMSO (5% DMSO final) were added to black polypropylene 96-well microtiter plates. To that, 10 μL of 10 nM PHD2 (2 nM final) was added to all wells of the plate except for the 8 wells of column 12 (LO control), and allowed to incubate at room temperature on the shaker for one hour. Column 6 was the HI control containing PHD2 enzyme and 5% DMSO vehicle, but no inhibitor compound. To initiate the PHD2 enzymatic reaction, 10 μL of a solution containing 500 nM P564-HIF1α peptide (100 nM final), 10 mM ascorbic acid (2 mM final), and 1.25 μM 2-oxoglutarate (α-ketoglutarate; 0.25 μM final) in PHD2 Reaction Buffer was added to all wells of the plate and allowed to incubate on the shaker at room temperature for one hour.
The reaction was terminated by addition of 25 μL TR-FRET Buffer (50 mM TRIS-HCl, pH 9, 100 mM NaCl, 0.05% BSA, and 0.5% Tween-20) containing 150 mM succinate (product inhibitor; 50 mM final), 75 nM streptavidin-APC (25 nM final), and 7.5 nM VCB-Eu (2.5 nM final). The TR-FRET detection reagents were placed on a shaker for 1 hour to reach binding equilibrium before reading on the Discovery platform (PerkinElmer). Europium is excited at 315 nm and phosphoresces at 615 nm with a large Stoke's shift. APC, in turn, emits at 655 nm upon excitation at 615 nm. The TR-FRET signal is measured as the ratio of the APC 655 nm signal divided by the internal europium reference 615 nm emission signal.
The POC (percentage of control) was determined by comparing the signal from hydroxylated peptide substrate in the enzyme reaction containing inhibitor compound with that from PHD2 enzyme with DMSO vehicle alone (HI control), and no enzyme (LO control). POC was calculated using the formula: % control (POC)=(cpd−average LO)/(average HI−average LO)*100. Data (consisting of POC and inhibitor concentration in μM) was fitted to a 4-parameter equation (y=A+((B−A)/(1+((x/C)^D))), where A is the minimum y (POC) value, B is the maximum y (POC), C is the x (cpd concentration) at the point of inflection and D is the slope factor) using a Levenburg-Marquardt non-linear regression algorithm.

HIF PHD2, sequence (Q9GZT9 whole entry): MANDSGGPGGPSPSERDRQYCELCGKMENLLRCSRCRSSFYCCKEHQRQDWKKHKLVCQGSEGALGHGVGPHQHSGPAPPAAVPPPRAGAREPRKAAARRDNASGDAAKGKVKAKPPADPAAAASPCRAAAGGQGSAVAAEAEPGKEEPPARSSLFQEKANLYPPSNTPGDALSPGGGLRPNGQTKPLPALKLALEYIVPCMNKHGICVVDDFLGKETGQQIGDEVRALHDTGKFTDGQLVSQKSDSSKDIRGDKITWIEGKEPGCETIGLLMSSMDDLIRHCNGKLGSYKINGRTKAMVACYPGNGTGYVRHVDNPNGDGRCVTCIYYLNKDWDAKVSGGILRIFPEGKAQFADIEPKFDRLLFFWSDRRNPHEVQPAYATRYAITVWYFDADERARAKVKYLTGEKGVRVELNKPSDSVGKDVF

SMILES	IC50 [µM]
C[C@H](NC(=O)C1=C(O)c2ccc(Br)cc2C(C)(C)C1=O)C(=O)O [Example 50, N-((7-Bromo-4-hydroxy-1,1-dimethyl-2-oxo-naphthalen-3-yl)carbonyl)-L-alanine]	0.1 to 0.5
CC1(C)C(=O)C(C(=O)NCC(=O)O)=C(O)c2ccc(-c3cccnc3)cc21 [Example 51, N-((7-(3-Pyridyl)-4-hydroxy-1,1-dimethyl-2-oxo-naphthalene-3-yl)carbonyl)glycine]	< 0.1
CC1(C)C(=O)C(C(=O)NCC(=O)O)=C(O)c2ccc(-c3ccccc3)cc21 [Example 52, N-((7-Phenyl-4-hydroxy-1,1-dimethyl-2-oxo-naphthalen-3-yl)carbonyl)glycine]	0.1 to 0.5
CC1(C)C(=O)C(C(=O)NCC(=O)O)=C(O)c2ccc(Br)cc21 [Example 53, N-((7-Bromo-4-hydroxy-1,1-dimethyl-2-oxo-naphthalen-3-yl)carbonyl)glycine]	< 0.1
CC(C)(NC(=O)C1=C(O)c2cc(Cl)ccc2C2(CCOCC2)C1=O)C(=O)O [Example 54, N-((6-Chloro-4-hydroxy-2-oxo-2′,3′,5′,6′-tetrahydro-spiro[naphthalene-1,4′-pyran]-3-yl)carbonyl)-2-methylalanine]	> 10
C[C@H](NC(=O)C1=C(O)c2cc(Cl)ccc2C2(CCOCC2)C1=O)C(=O)O [Example 55, N-((6-Chloro-4-hydroxy-2-oxo-2′,3′,5′,6′-tetrahydro-spiro[naphthalene-1,4′-pyran]-3-yl)carbonyl)-L-alanine]	0.1 to 0.5
C[C@@H](NC(=O)C1=C(O)c2cc(Cl)ccc2C2(CCOCC2)C1=O)C(=O)O [Example 56, N-((6-Chloro-4-hydroxy-2-oxo-2′,3′,5′,6′-tetrahydro-spiro[naphthalene-1,4′-pyran]-3-yl)carbonyl)-D-alanine]	> 10
CC1(C)C(=O)C(C(=O)NCC(=O)O)=C(O)c2cc(Cl)cc(F)c21 [Example 57, N-((6-Chloro-8-fluoro-4-hydroxy-1,1-dimethyl-2-oxo-naphthalen-3-yl)carbonyl)glycine]	< 0.1
O=C(O)CNC(=O)C1=C(O)c2cc(F)c(F)cc2C2(CCOCC2)C1=O [Example 58, N-((6,7-Difluoro-4-hydroxy-2-oxo-2′,3′,5′,6′-tetrahydro-spiro[naphthalene-1,4′-pyran]-3-yl)carbonyl)glycine]	< 0.1
CC1(C)C(=O)C(C(=O)NCC(=O)O)=C(O)c2cc(F)c(F)cc21 [Example 59, N-((6,7-Difluoro-4-hydroxy-1,1-dimethyl-2-oxo-naphthalen-3-yl)carbonyl)glycine]	< 0.1
O=C(O)CNC(=O)C1=C(O)c2cc(Cl)ccc2C2(CCCCC2)C1=O [Example 60, N-((6′-Chloro-4′-hydroxy-2′-oxo-spiro[cyclohexane-1,1′-naphthalen]-3′-yl)carbonyl)glycine]	0.1 to 0.5
Cc1ccc2c(c1)C(O)=C(C(=O)NCC(=O)O)C(=O)C2(C)C [Example 61, N-((6-Methyl-4-hydroxy-1,1-dimethyl-2-oxo-naphthalen-3-yl)carbonyl)glycine]	< 0.1
O=C(O)CNC(=O)C1=C(O)c2cc(Cl)c(Cl)cc2C2(CCOCC2)C1=O [Example 62, N-((6,7-Dichloro-4-hydroxy-2-oxo-2′,3′,5′,6′-tetrahydro-spiro[naphthalene-1,4′-pyran]-3-yl)carbonyl)glycine]	< 0.1
CC1(C)C(=O)C(C(=O)NCC(=O)O)=C(O)c2ccccc21 [Example 63, N-((4-Hydroxy-1,1-dimethyl-2-oxo-naphthalen-3-yl)carbonyl)glycine]	< 0.1
CC1(C)C(=O)C(C(=O)NCC(=O)O)=C(O)c2cc(Cl)c(Cl)cc21 [Example 64, N-((6,7-Dichloro-4-hydroxy-1,1-dimethyl-2-oxo-naphthalen-3-yl)carbonyl)glycine]	< 0.1
Cc1ccccc1-c1ccc2c(c1)C(O)=C(C(=O)NCC(=O)O)C(=O)C2(C)C [Example 65, N-((6-(2-Methylphenyl)-4-hydroxy-1,1-dimethyl-2-oxo-naphthalen-3-yl)carbonyl)glycine]	0.5 to 1

SMILES	IC50 [µM]
C[C@H](NC(=O)C1=C(O)c2cc(Cl)ccc2C(C)(C)C1=O)C(=O)O [Example 66, N-((6-Chloro-4-hydroxy-1,1-dimethyl-2-oxo-naphthalen-3-yl)carbonyl)-L-alanine]	0.1 to 0.5
O=C(O)CNC(=O)C1=C(O)c2cc(-c3ccccc3)ccc2C2(CCCC2)C1=O [Example 67, N-((4′-Hydroxy-2′-oxo-6′-phenyl-spiro[cyclopentane-1,1′-naphthalen]-3′-yl)carbonyl)glycine]	1 to 10
CC1(C)C(=O)C(C(=O)NCC(=O)O)=C(O)c2cc(-c3ccccc3)ccc21 [Example 68, N-((6-Phenyl-4-hydroxy-1,1-dimethyl-2-oxo-naphthalen-3-yl)carbonyl)glycine]	0.5 to 1
O=C(O)CNC(=O)C1=C(O)c2ccccc2C2(CCN(Cc3ccccc3)CC2)C1=O [Example 69, N-((4-Hydroxy-2-oxo-2′,3′,5′,6′-tetrahydro-N-benzyl-spiro[naphthalene-1,4′-piperidine]-3-yl)carbonyl)glycine]	< 0.1
O=C(O)CNC(=O)C1=C(O)c2ccccc2C2(CCNCC2)C1=O [Example 70, N-((4-Hydroxy-2-oxo-2′,3′,5′,6′-tetrahydro-spiro[naphthalene-1,4′-piperidine]-3-yl)carbonyl)glycine]	0.1 to 0.5
O=C(O)CNC(=O)C1=C(O)c2cc(Cl)ccc2C2(CCN(Cc3ccccc3)CC2)C1=O [Example 71, N-((6-Chloro-4-hydroxy-2-oxo-2′,3′,5′,6′-tetrahydro-N-benzyl-spiro[naphthalene-1,4′-piperidine]-3-yl)carbonyl)glycine]	< 0.1
O=C(O)CNC(=O)C1=C(O)c2cc(Cl)ccc2C2(CCCO2)C1=O (stereo not shown) [Example 72, N-((6′-Chloro-4′-hydroxy-2′-oxo-4,5-dihydro-spiro[furan-2,1′-naphthalen]-3′-yl)carbonyl)glycine]	< 0.1
O=C(O)CNC(=O)C1=C(O)c2cc(Cl)ccc2[C@@]2(CCCO2)C1=O [Example 73, N-(((2S)-6′-Chloro-4′-hydroxy-2′-oxo-4,5-dihydro-spiro[furan-2,1′-naphthalen]-3′-yl)carbonyl)glycine]	< 0.1
O=C(O)CNC(=O)C1=C(O)c2cc(Cl)ccc2[C@]2(CCCO2)C1=O [Example 74, N-(((2R)-6′-Chloro-4′-hydroxy-2′-oxo-4,5-dihydro-spiro[furan-2,1′-naphthalen]-3′-yl)carbonyl)glycine]	0.1 to 0.5
O=C(O)CNC(=O)C1=C(O)c2cc(Cl)ccc2C2(CCCOC2)C1=O (stereo not shown) [Example 75, N-((6-Chloro-4-hydroxy-2-oxo-5′,6′-dihydro-spiro[naphthalene-1,3′-pyran]-3-yl)carbonyl)glycine]	< 0.1
O=C(O)CNC(=O)C1=C(O)c2cc(Cl)ccc2[C@]2(CCCOC2)C1=O [Example 76, N-(((1S)-6-Chloro-4-hydroxy-2-oxo-5′,6′-dihydro-spiro[naphthalene-1,3′-pyran]-3-yl)carbonyl)glycine]	0.1 to 0.5
O=C(O)CNC(=O)C1=C(O)c2cc(Cl)ccc2[C@@]2(CCCOC2)C1=O [Example 77, N-(((1R)-6-Chloro-4-hydroxy-2-oxo-5′,6′-dihydro-spiro[naphthalene-1,3′-pyran]-3-yl)carbonyl)glycine]	< 0.1
CC[C@]1(C)C(=O)C(C(=O)NCC(=O)O)=C(O)c2cc(Cl)ccc21 [Example 79, N-(((1S)-6-Chloro-4-hydroxy-1-ethyl-1-methyl-2-oxo-naphthalen-3-yl)carbonyl)glycine]	0.1 to 0.5
O=C(O)CNC(=O)C1=C(O)c2cc(Cl)ccc2C2(CCC(=O)CC2)C1=O [Example 80, N-((6′-Chloro-4′-hydroxy-2′,4-dioxo-spiro[cyclohexane-1,1′-naphthalen]-3′-yl)carbonyl)glycine]	< 0.1
CC1(C)C(=O)C(C(=O)NCC(=O)O)=C(O)c2c(F)cccc21 [Example 81, N-((5-Fluoro-4-hydroxy-1,1-dimethyl-2-oxo-naphthalen-3-yl)carbonyl)glycine]	< 0.1
